Measured values: patent US8946273B2, “S-Triazolyl alpha-mercapto acetanilides as inhibitors of HIV reverse transcriptase” (priority 2011, dated 2015)
Read-outs that look alike come from different tables or passages of the source.

What was measured:
[1] = biological target: T1, wild-type HIV reverse transcriptase (Human immunodeficiency virus type 1 group M subtype B, UniProt P04585); experiment: Activity on wild type reverse transcriptase (Table 1 IC50 WT); assay type: biochemical
T1 construct: wild-type and four mutant HIV reverse transcriptases
Protocol: Using similar methods as described above, 2-[5-bromo-4-(4-cyclopropylnaphthalen-1-yl)-4H-[1,2,4]triazol-3-ylsulfanyl]-N-(2-methyl-4-sulfamoylphenyeacetamide and 2-[5-bromo-4-(4-ethylnaphthalen-1-yl)-4H-[1,2,4]triazol-3-ylsulfanyl]-N-(2-chloro-4-sulfamoylphenyl)-acetamide were synthesized, as were the N-4-carbamyl analog, 2-[5-bromo-4-(4-ethyl-naphthalen-1-yl)-4H-[1,2,4]triazol-3-ylsulfanyl]-N-(2-chloro-4-carbamoylphenyl)-acetamide and the N-4-carboxyl analog. Each of the compounds was tested against a panel of mutant HIV reverse transcriptases, including 20 of the 22 of the mutants that are found in about 2% or more of the patient samples that are resistant to the most widely used non-nucleoside HIV-RT inhibitor efavirenz ((4S)-6-chloro-4-(cyclopropylethynyl)-1,4-dihydro-4-(trifluoromethyl)-2H-3,1-benzoxazin-2-one). […] In most cases both criteria were met. […] […].
Compounds of the invention were tested against the wild-type and four mutant HIV reverse transcriptases. The results are listed in Table 1 as EC50 (nM) and IC50 (nM). In the Table, A represents <50 nM, B is between 50 and 100 nM, and C is >100 nM. ND is not determined.

wild type HIV-1 = experiment: microbe, parasite or virus in culture; assay type: cell-based, human immunodeficiency virus type 1 (HIV-1)
[2] = biological target: mutant HIV reverse transcriptases (Human immunodeficiency virus type 1, UniProt P12497, Y768C, cells depend on it); assay type: cell-based
[3] = biological target: mutant HIV reverse transcriptases (Human immunodeficiency virus type 1, UniProt P12497, Y775L, cells depend on it); assay type: cell-based
[4] = Human immunodeficiency virus 1, Hela-JC53, read-out: EC50 WT
[5] = read-out: IC50 WT RT, wild-type (WT) RT
[6] = read-out: EC50 WT, wild-type (WT) HIV-1

| Structure (SMILES) | IC50 [1] | EC50 (wild type HIV-1; [4]) | EC50 [2] | EC50 [3] | IC50 [1, 5] | EC50 (wild type HIV-1; [6]) |
| --- | --- | --- | --- | --- | --- | --- |
| CCOC(=O)N1CCC(NC(=O)c2ccc(NC(=O)CSc3nnc(Br)n3-c3ccc(CC)c4ccccc34)c(Cl)c2)CC1 [compound 126] | < 50 nM | < 50 nM | < 50 nM | < 50 nM |  |  |
| CCc1ccc(-n2c(Br)nnc2SCC(=O)Nc2ccc(C(=O)N3CCC(CN)CC3)cc2Cl)c2ccccc12 [compound 138] | < 50 nM | < 50 nM | < 50 nM | < 50 nM |  |  |
| O=C(CSc1nnc(Br)n1-c1ccc(C2CC2)c2ccccc12)Nc1ccc(C(=O)O)cc1Cl [compound 10] | < 50 nM | < 50 nM | < 50 nM | < 50 nM |  |  |
| NS(=O)(=O)c1ccc(NC(=O)CSc2nnc(C(F)F)n2-c2ccc(C3CCCC3)c3ccccc23)c(Cl)c1 [compound 99] |  |  | < 50 nM | > 100 nM | < 50 nM | < 50 nM |
| CNS(=O)(=O)c1ccc(NC(=O)CSc2nnc(C(F)F)n2-c2ccc(C)c3c2CCCC3)c(Cl)c1 [compound 51] | < 50 nM | < 50 nM | < 50 nM | < 50 nM |  |  |
| CCc1ccc(-n2c(Br)nnc2SCC(=O)Nc2ccc(S(=O)(=O)O)cc2Br)c2ccccc12 [compound 20] | < 50 nM | > 100 nM | > 100 nM | > 100 nM |  |  |
| NS(=O)(=O)c1ccc(NC(=O)CSc2nnc(Br)n2-c2ccc(C3CC3)cc2Cl)c(Cl)c1 [compound 75] | < 50 nM | < 50 nM | < 50 nM | < 50 nM |  |  |
| CCc1ccc(-n2c(SCC(=O)Nc3ccc(C(=O)O)cc3Cl)nnc2C(F)F)c2ccccc12 [compound 4] | < 50 nM | < 50 nM | < 50 nM | < 50 nM |  |  |
| CCc1ccc(-n2c(Br)nnc2SCC(=O)Nc2ccc(C(=O)O)cc2C)c2ccccc12 [compound 6] | < 50 nM | < 50 nM | < 50 nM | > 100 nM |  |  |
| Cc1cc(C2CC2)c2ccccc2c1-n1c(Br)nnc1SCC(=O)Nc1ccc(C(=O)O)cc1Cl [compound 23] | < 50 nM | < 50 nM | < 50 nM | < 50 nM |  |  |
| CC(C)C[C@H](NC(=O)c1ccc(NC(=O)CSc2nnc(Br)n2-c2ccc(C3CC3)c3ccccc23)c(Cl)c1)C(=O)O [compound 117] | < 50 nM | < 50 nM | 50 to 100 nM | > 100 nM |  |  |
| O=C(CSc1nnc(Br)n1-c1ccc(C2CCC2)c2ccccc12)Nc1ccc(C(=O)O)cc1Cl [compound 26] | < 50 nM | < 50 nM | < 50 nM | < 50 nM |  |  |
| CCc1ccc(-n2c(Br)nnc2SCC(=O)Nc2ccc(C(=O)NCCOC)cc2Cl)c2ccccc12 [compound 127] | < 50 nM | < 50 nM | < 50 nM | < 50 nM |  |  |
| O=C(CSc1nnc(Br)n1-c1cccc2c(OCC3CC3)cccc12)Nc1ccc(C(=O)O)cc1Cl [compound 32] | > 100 nM | > 100 nM | > 100 nM | > 100 nM |  |  |
| COc1ccc2cccc(-n3c(Br)nnc3SCC(=O)Nc3ccc(C(=O)O)cc3Cl)c2c1 [compound 13] | < 50 nM | < 50 nM | < 50 nM | < 50 nM |  |  |
| NS(=O)(=O)c1ccc(NC(=O)CSc2nnc(C(F)F)n2-c2ccc(C3CCC3)c3ccccc23)c(Cl)c1 [compound 69] | < 50 nM | < 50 nM | < 50 nM | < 50 nM |  |  |
| O=C(CSc1nnc(Br)n1-c1ccc(C2CC2)c2ccccc12)Nc1ccc(C(=O)N[C@@H](Cc2ccc(O)cc2)C(=O)O)cc1Cl [compound 116] | < 50 nM | 50 to 100 nM | > 100 nM | > 100 nM |  |  |
| NS(=O)(=O)c1ccc(NC(=O)CSc2nnc(C(F)F)n2-c2ccc(C3CCCC3)c3ccccc23)c(Cl)c1 [compound 68] | < 50 nM | < 50 nM | < 50 nM | > 100 nM |  |  |
| O=C(CSc1nnc(Br)n1-c1ccc(C2CC2)cc1Cl)Nc1ccc(S(=O)(=O)O)cc1Cl [compound 21] | < 50 nM | 50 to 100 nM | > 100 nM | > 100 nM |  |  |
| CCc1ccc(-n2c(Br)nnc2SCC(=O)Nc2ccc(C(=O)N3CCC(O)CC3)cc2Cl)c2ccccc12 [compound 134] | < 50 nM | < 50 nM | < 50 nM | < 50 nM |  |  |
| O=C(CSc1nnc(Br)n1-c1ccc(C2CC2)c2ccccc12)Nc1ccc(C(=O)O)cc1Cl [compound 12] |  |  | < 50 nM | < 50 nM | < 50 nM | < 50 nM |

| Structure (SMILES) | IC50 [1] | EC50 (wild type HIV-1; [4]) | EC50 [2] | EC50 [3] | IC50 [1, 5] | EC50 (wild type HIV-1; [6]) |
| --- | --- | --- | --- | --- | --- | --- |
| Cc1cc(S(N)(=O)=O)ccc1NC(=O)CSc1nnc(Br)n1-c1ccc(F)c2ccccc12 [compound 62] | < 50 nM | < 50 nM | < 50 nM | > 100 nM |  |  |
| CCc1ccc(-n2c(Br)nnc2SCC(=O)Nc2ccc(S(N)(=O)=O)cc2Br)c2ccccc12 [compound 73] | < 50 nM | < 50 nM | < 50 nM | < 50 nM |  |  |
| CC(C)c1ccc(-n2c(SCC(=O)Nc3ccc(S(N)(=O)=O)cc3Cl)nnc2C(F)F)c2ccccc12 [compound 71] | < 50 nM | < 50 nM | < 50 nM | < 50 nM |  |  |
| Cc1cc(S(N)(=O)=O)ccc1NC(=O)CSc1nnc(CF)n1-c1ccc(C)c2c1CCCC2 [compound 65] | < 50 nM | < 50 nM | < 50 nM | 50 to 100 nM |  |  |
| Cc1ccc(-n2c(SCC(=O)Nc3ccc(S(=O)(=O)NC(C)C(=O)O)cc3Cl)nnc2C(F)F)c2c1CCCC2 (centres unmarked) [compound 59] | < 50 nM | > 100 nM | > 100 nM | > 100 nM |  |  |
| NS(=O)(=O)c1ccc(NC(=O)CSc2nnc(C(F)F)n2-c2ccc(C3CCC3)c3ccccc23)c(Cl)c1 [compound 100] |  |  | < 50 nM | < 50 nM | < 50 nM | < 50 nM |
| CCOC(=O)[C@H](Cc1ccc(O)cc1)NC(=O)c1ccc(NC(=O)CSc2nnc(Br)n2-c2ccc(C3CC3)c3ccccc23)c(Cl)c1 [compound 114] | 50 to 100 nM | < 50 nM | < 50 nM | > 100 nM |  |  |
| CN(CC(=O)O)C(=O)c1ccc(NC(=O)CSc2nnc(Br)n2-c2ccc(C3CC3)c3ccccc23)c(Cl)c1 [compound 111] | < 50 nM | 50 to 100 nM | > 100 nM | > 100 nM |  |  |
| CNS(=O)(=O)c1ccc(NC(=O)CSc2nnc(C(F)F)n2-c2ccc(C)c3ccccc23)c(Cl)c1 [compound 54] | < 50 nM | < 50 nM | < 50 nM | 50 to 100 nM |  |  |
| O=C(CSc1nnc(Br)n1-c1ccc(C2CC2)cc1OC(F)(F)F)Nc1ccc(S(=O)(=O)O)cc1Cl [compound 24] | < 50 nM | > 100 nM | > 100 nM | > 100 nM |  |  |
| Cc1cc(S(N)(=O)=O)ccc1NC(=O)CSc1nnc(Br)n1-c1ccc(C2CC2)c2ccccc12 [compound 40] | < 50 nM | < 50 nM | < 50 nM | < 50 nM |  |  |
| CC(C)OC(=O)CNC(=O)c1ccc(NC(=O)CSc2nnc(Br)n2-c2ccc(C3CC3)c3ccccc23)c(Cl)c1 [compound 129] | < 50 nM | < 50 nM | < 50 nM | < 50 nM |  |  |
| Cc1cc(C2CC2)c2ccccc2c1-n1c(Br)nnc1SCC(=O)Nc1ccc(S(=O)(=O)O)cc1Cl [compound 15] | < 50 nM | < 50 nM | 50 to 100 nM | > 100 nM |  |  |
| CCc1ccc(-n2c(Br)nnc2SCC(=O)Nc2ccc(C(=O)NCC(O)CO)cc2Cl)c2ccccc12 (centres unmarked) [compound 120] | < 50 nM | < 50 nM | < 50 nM | < 50 nM |  |  |
| O=C(CSc1nnc(Br)n1-c1ccc(C2CC2)cc1Cl)Nc1ccc(C(=O)O)cc1Cl [compound 31] | < 50 nM | < 50 nM | < 50 nM | > 100 nM |  |  |
| CCc1ccc(-n2c(CF)nnc2SCC(=O)Nc2ccc(C(=O)O)cc2Cl)c2ccccc12 [compound 17] | < 50 nM | < 50 nM | < 50 nM | > 100 nM |  |  |
| CCc1ccc(-n2c(SCC(=O)Nc3ccc(S(N)(=O)=O)cc3Cl)nnc2C(F)F)c2c1CCCC2 [compound 47] | < 50 nM | < 50 nM | < 50 nM | < 50 nM |  |  |
| Cc1ccc(-n2c(SCC(=O)Nc3ccc(S(=O)(=O)NCCC(=O)O)cc3Cl)nnc2C(F)F)c2c1CCCC2 [compound 58] | < 50 nM | 50 to 100 nM | > 100 nM | > 100 nM |  |  |
| CCc1ccc(-n2c(SCC(=O)Nc3ccc(C(=O)O)cc3C)nnc2C(F)F)c2ccccc12 [compound 3] | < 50 nM | < 50 nM | 50 to 100 nM | > 100 nM |  |  |
| Cc1ccc(-n2c(SCC(=O)Nc3ccc(S(=O)(=O)NC(C(=O)O)C(C)C)cc3Cl)nnc2C(F)F)c2c1CCCC2 (centres unmarked) [compound 60] | < 50 nM | > 100 nM | > 100 nM | > 100 nM |  |  |
